Experiments:
[1] = target: T1, OxaC (Penicillium oxalicum, UniProt A0A1B2TT09); assay: X-ray crystal structure, […] Å; assay type: binding
[2] = target: T1, OxaC; assay: X-ray crystal structure, […] Å; assay type: binding; remark: listed apart in the source
[3] = tested on: C=CC(C)(C)[C@@]12C=C(O)C(=O)N3/C(=C/c4cnc[nH]4)C(=O)N[C@]31N(OC)c1ccccc12; assay: HPLC initial-velocity assay, Michaelis-Menten fit; assay type: biochemical, Penicillium oxalicum; settings: 0.9 nM OxaC, 0.5 mM SAM, 50 mM Na/K phosphate pH 8.0, 23 °C
[4] = target: the molecule itself; assay: crystal structure

## C=CC(C)(C)[C@@]12C=C(O)C(=O)N3/C(=C/c4cnc[nH]4)C(=O)N[C@]31N(OC)c1ccccc12 [compound 2, meleagrin]
[1]; pseudo-Michaelis complex with sinefungin
  X-ray crystal structure, 2.95 Å: a pseudo-Michaelis complex composed of the SAM analog sinefungin and the natural substrate meleagrin

## Nc1ncnc2c1ncn2[C@@H]1O[C@H](CSCC[C@H](N)C(=O)O)[C@@H](O)[C@H]1O [S-adenosyl-L-homocysteine]
[2]; SAM site, product complex with oxaline
  X-ray crystal structure, 2.50 Å: a product complex containing SAH and oxaline

## Nc1ncnc2c1ncn2[C@@H]1O[C@H](C[C@@H](N)CC[C@H](N)C(=O)O)[C@@H](O)[C@H]1O [sinefungin]
[1]; SAM site, complex with meleagrin
  X-ray crystal structure, 2.95 Å: a pseudo-Michaelis complex composed of the SAM analog sinefungin and the natural substrate meleagrin

## OxaC (Penicillium oxalicum)
[3]
  Km: 3.1 ± 0.9 µM
  kcat: 1.3 ± 0.2 s⁻¹
  kcat/Km: 420000 M⁻¹ s⁻¹

## C=CC(C)(C)[C@]12C=C(OC)C(=O)N3/C(=C/c4cnc[nH]4)C(=O)N[C@@]31N(OC)c1ccccc12 [compound 3, oxaline]
[2]; product complex with SAH, co-crystallised with meleagrin and SAM
  X-ray crystal structure, 2.50 Å: a product complex containing SAH and oxaline

B1: OxaC (enzyme)
chain: MGSSHHHHHHHHGASENLYFQGASMTFSNADAQKIAVQKDVDEVVAAAQRFLHGSGNATSDEAKVDLQKKASNLVQTIRGPIPAALSSMEDIVKVASLRTLFEAGVFHAMPKGGASMTASEISAQTGLDKGILIRLMRAVTPLGPFHEVGEEEYAHTPFSEAYLTADIAGCFPVMSNFIFGPVLQICDFLRQNNWKDAITTRNNPFTLAHNCPGETMFEHLYKNSKNVAPVTKAEAADVDQIAMDLYPWEERLSDAKGSNATLVDIAGSHGNGTRAIMALAPKLNGCRFIVQDLEPVIGEHSQALRAEGIEPQVYDFLKQEQPVHGASIYYFRRVFHDWPDLPEGKKILDNTRAAMSREHSRILIHDIIVPEIGATMSHAWQDLSLMAIGGMERTEKDFARLLDIAGLALVKVWRKPGDMMGIIEARLK
[4]
  stoichiometry N: 2

— publication PMC6134404 (Organic & biomolecular chemistry, 2018)
